According to ChEMBL document CHEMBL1155531, “Structure guided design of 5-arylindazole glucocorticoid receptor agonists and antagonists” (J Med Chem, 2010):

Experiments:
[1] = biological target: T1, Glucocorticoid receptor (Homo sapiens, UniProt P04150); assay: Displacement of fluorescent-labeled Dexamethasone from GR by fluorescent polarization assay
T1 sequence (P04150 whole entry): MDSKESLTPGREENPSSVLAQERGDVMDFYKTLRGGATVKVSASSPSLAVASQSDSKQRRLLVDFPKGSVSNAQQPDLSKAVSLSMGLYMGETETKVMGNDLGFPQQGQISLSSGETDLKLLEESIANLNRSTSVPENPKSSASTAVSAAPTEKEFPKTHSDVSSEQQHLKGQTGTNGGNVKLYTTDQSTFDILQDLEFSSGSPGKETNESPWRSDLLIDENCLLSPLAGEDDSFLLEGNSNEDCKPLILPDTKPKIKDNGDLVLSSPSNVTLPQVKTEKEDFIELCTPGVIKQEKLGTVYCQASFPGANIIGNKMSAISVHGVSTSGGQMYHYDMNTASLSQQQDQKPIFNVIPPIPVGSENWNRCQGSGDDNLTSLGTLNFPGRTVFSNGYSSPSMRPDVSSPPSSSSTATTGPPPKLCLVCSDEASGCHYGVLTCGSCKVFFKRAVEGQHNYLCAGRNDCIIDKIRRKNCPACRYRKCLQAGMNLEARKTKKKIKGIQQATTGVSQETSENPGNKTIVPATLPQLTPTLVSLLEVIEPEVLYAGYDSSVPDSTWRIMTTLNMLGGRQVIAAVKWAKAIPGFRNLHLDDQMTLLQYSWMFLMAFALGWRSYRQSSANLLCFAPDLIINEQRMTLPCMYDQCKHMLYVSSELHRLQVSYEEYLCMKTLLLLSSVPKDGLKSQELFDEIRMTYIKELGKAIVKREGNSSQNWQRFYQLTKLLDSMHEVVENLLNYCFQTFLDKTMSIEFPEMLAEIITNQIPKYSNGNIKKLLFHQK

[2] = biological target: T1, Glucocorticoid receptor; assay: Activity at GR in human A549 cells by NF-kappaB transrepression assay; assay type: cell-based
[3] = biological target: T2, Progesterone receptor (Homo sapiens, UniProt P06401); assay: Binding affinity to PR
T2 sequence (P06401 whole entry): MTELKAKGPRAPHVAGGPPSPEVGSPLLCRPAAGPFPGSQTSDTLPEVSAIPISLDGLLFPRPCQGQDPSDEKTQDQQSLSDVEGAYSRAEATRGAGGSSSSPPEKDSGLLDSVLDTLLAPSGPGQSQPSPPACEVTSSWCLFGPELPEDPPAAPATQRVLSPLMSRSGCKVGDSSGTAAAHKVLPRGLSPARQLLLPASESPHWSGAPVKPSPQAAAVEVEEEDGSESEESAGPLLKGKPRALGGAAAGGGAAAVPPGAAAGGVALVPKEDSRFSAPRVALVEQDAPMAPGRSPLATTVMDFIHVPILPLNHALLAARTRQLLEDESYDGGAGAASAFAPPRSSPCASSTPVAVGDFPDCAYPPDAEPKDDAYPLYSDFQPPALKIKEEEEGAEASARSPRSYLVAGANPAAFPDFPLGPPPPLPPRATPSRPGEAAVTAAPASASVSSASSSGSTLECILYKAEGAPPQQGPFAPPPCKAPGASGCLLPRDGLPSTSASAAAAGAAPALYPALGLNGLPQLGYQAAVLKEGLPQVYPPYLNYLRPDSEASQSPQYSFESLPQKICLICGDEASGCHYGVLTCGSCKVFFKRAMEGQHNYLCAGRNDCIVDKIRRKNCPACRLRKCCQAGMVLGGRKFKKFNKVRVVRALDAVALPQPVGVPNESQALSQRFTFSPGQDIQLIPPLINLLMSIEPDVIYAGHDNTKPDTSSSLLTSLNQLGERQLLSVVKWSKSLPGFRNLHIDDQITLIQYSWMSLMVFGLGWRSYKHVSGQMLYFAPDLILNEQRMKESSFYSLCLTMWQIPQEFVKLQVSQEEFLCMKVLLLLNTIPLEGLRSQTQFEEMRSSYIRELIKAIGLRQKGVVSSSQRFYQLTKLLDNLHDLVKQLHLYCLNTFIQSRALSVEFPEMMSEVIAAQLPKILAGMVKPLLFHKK

[4] = biological target: T1, Glucocorticoid receptor; assay: Agonist activity at GR in human A549 cells transfected with luciferase gene linked to MMTV promoter assessed as luciferase transactivation activity after 24 hrs; assay type: functional, cell-based
[5] = Antiinflammatory activity in human primary synovial fibroblasts assessed as inhibition of IL1-induced IL8 release after 18 hrs by MSD technology; assay type: functional
[6] = Antiinflammatory activity in human primary synovial fibroblasts assessed as inhibition of IL1-induced MMP1 release after 18 hrs by MSD technology; assay type: functional
[7] = Toxicity in human skeletal muscle cells assessed as increase in glutamine synthase mRNA level after 18 hrs by PCR
[8] = Volume of distribution at steady state in CD rat at 1 mg/kg, po and 1 mg/kg, iv; assay type: ADME, organism-based; conditions: in vivo, read-out: Vdss
[9] = Oral bioavailability in CD rat at 1 mg/kg; assay type: ADME, organism-based; conditions: in vivo
[10] = Elimination half life in DBA1 mouse at 1 mg/kg, po and 1 mg/kg, iv; assay type: ADME, organism-based; conditions: in vivo, read-out: beta t1/2 (converted)
[11] = Oral bioavailability in DBA1 mouse at 1 mg/kg; assay type: ADME, organism-based; conditions: in vivo
[12] = Tmax in CD rat at 1 mg/kg, po; assay type: ADME, organism-based; parameters: dose 1 mg/kg, route oral; conditions: in vivo
[13] = Tmax in DBA1 mouse at 1 mg/kg, po; assay type: ADME, organism-based; parameters: dose 1 mg/kg, route oral; conditions: in vivo
[14] = Relative fraction unbound in mouse assessed as ratio of fraction unbound in mouse at 10 mg/kg, po to IC50 for NF-kappaB transrepression activity in A549 cells expressing MMTV reporter gene; assay type: ADME, organism-based; parameters: dose 10 mg/kg, route oral; conditions: in vivo
[15] = Relative plasma concentration in mouse assessed as ratio of plasma concentration in mouse at 1 mg/kg, po to IC50 for NF-kappaB transrepression activity in A549 cells expressing MMTV reporter gene; assay type: ADME, organism-based; parameters: dose 1 mg/kg, route oral; conditions: in vivo
[16] = Relative fraction unbound in mouse assessed as ratio of fraction unbound in mouse at 1 mg/kg, po to IC50 for NF-kappaB transrepression activity in A549 cells expressing MMTV reporter gene; assay type: ADME, organism-based; parameters: dose 1 mg/kg, route oral; conditions: in vivo
[17] = Plasma concentration in mouse bearing mouse NIH-3T3 cells integrated with MMTV reporter gene at 0.1 mg/kg, po after 1 hr; assay type: ADME, organism-based, NIH3T3; parameters: dose 0.1 mg/kg, route oral
[18] = Relative fraction unbound in mouse assessed as ratio of fraction unbound in mouse at 0.1 mg/kg, po to IC50 for NF-kappaB transrepression activity in A549 cells expressing MMTV reporter gene; assay type: ADME, organism-based; parameters: dose 0.1 mg/kg, route oral; conditions: in vivo
[19] = Plasma concentration in mouse bearing mouse NIH-3T3 cells integrated with MMTV reporter gene at 100 mg/kg, po after 1 hr; assay type: ADME, organism-based, NIH3T3; parameters: dose 100 mg/kg, route oral
[20] = test system: Mus musculus; assay: Inhibition of IL1-induced circulating IL6 release in mouse at 10 mg/kg, po; assay type: functional
[21] = test system: Mus musculus; assay: Inhibition of IL1-induced circulating IL6 release in mouse at 1 mg/kg, po; assay type: functional
[22] = test system: Mus musculus; assay: Inhibition of IL1-induced circulating IL6 release in mouse at 0.1 mg/kg, po; assay type: functional
[23] = test system: Mus musculus; assay: Inhibition of IL1-induced circulating IL6 release in mouse at 100 mg/kg, po; assay type: functional

O=S(=O)(Cc1ccccc1)Nc1ccc(-c2ccc3c(cnn3-c3ccc(F)cc3)c2)c(C(F)(F)F)c1
IC50 [1]: 10 nM
IC50 [2]: 10 nM
IC50 [3]: > 10000 nM
EC50 [4]: 20 nM
IC50 [5]: 2 nM
IC50 [6]: 1.26 nM
Activity [7]: Toxic
Vd [8]: 2 L/kg
bioavailability [9]: > 22%
half-life [10]: 4 h
bioavailability [11]: > 51%
Tmax [12]: 6 h
Tmax [13]: 6 h
fold change (FC) [14]: 0.5
fold change (FC) [15]: 29
fold change (FC) [16]: 0.06
concentration at 1 h [17]: 0.025 µM
fold change (FC) [18]: 0.005
concentration at 1 h [19]: 12.1 µM
inhibition in vivo at 10 mg/kg [20]: 44%
inhibition in vivo at 1 mg/kg [21]: 0%
inhibition in vivo at 0.1 mg/kg [22]: 0%
inhibition in vivo at 100 mg/kg [23]: 57%
